Values quoted from earlier work in patent US20230303712A1, “METHODS OF TREATING GLIOBLASTOMA” (Ramot at Tel-Aviv University Ltd., priority 2020, published 2023).

B1: crizanlizumab: Humanized monoclonal anti-P-selectin antibody (antibody, chains of the INN, looked up, V domains shown)
VH: QVQLVQSGAEVKKPGASVKVSCKVSGYTFTSYDINWVRQAPGKGLEWMGWIYPGDGSIKYNEKFKGRVTMTVDKSTDTAYMELSSLRSEDTAVYYCARRGEYGNYEGAMDYWGQGTLVTVSS
VL: DIQMTQSPSSLSASVGDRVTITCKASQSVDYDGHSYMNWYQQKPGKAPKLLIYAASNLESGVPSRFSGSGSGTDFTLTISSLQPEDFATYYCQQSDENPLTFGGGTKVEIK

What was measured:
[1] = target: T1, L-Selectin (Homo sapiens, UniProt P14151); conditions: in humans in vitro; cited from earlier work
T1 sequence (P14151 39-372): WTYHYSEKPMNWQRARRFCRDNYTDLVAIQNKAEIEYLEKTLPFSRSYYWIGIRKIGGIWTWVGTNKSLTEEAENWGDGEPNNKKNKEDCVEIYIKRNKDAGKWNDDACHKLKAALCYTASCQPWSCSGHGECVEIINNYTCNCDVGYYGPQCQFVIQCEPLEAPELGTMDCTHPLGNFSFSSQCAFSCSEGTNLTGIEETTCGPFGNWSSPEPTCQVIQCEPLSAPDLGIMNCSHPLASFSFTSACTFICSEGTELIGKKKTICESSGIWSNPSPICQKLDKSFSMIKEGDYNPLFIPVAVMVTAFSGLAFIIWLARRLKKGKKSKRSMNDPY

[2] = target: T2, E-Selectin (Homo sapiens, UniProt P16581); conditions: in humans in vitro; cited from earlier work
T2 sequence (P16581 22-610): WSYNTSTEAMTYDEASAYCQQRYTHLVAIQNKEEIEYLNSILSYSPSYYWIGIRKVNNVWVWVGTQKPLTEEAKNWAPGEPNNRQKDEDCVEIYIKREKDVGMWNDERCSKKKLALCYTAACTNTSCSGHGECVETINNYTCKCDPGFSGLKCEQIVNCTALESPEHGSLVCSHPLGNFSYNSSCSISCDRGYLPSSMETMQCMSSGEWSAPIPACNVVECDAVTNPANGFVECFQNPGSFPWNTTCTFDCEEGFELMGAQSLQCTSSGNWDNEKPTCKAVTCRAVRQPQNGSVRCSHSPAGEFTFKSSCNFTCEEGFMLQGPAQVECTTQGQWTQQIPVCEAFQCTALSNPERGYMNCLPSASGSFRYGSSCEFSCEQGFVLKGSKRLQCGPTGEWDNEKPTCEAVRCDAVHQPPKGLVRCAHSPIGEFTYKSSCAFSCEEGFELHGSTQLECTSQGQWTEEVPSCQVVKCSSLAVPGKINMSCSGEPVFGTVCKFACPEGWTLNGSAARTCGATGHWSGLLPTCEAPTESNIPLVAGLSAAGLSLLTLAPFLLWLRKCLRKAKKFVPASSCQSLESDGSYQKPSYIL

[3] = different animal models; cited from earlier work
[4] = target: T3, P-Selectin (Homo sapiens, UniProt P16109); conditions: in humans in vitro; cited from earlier work
T3 sequence (P16109 42-830): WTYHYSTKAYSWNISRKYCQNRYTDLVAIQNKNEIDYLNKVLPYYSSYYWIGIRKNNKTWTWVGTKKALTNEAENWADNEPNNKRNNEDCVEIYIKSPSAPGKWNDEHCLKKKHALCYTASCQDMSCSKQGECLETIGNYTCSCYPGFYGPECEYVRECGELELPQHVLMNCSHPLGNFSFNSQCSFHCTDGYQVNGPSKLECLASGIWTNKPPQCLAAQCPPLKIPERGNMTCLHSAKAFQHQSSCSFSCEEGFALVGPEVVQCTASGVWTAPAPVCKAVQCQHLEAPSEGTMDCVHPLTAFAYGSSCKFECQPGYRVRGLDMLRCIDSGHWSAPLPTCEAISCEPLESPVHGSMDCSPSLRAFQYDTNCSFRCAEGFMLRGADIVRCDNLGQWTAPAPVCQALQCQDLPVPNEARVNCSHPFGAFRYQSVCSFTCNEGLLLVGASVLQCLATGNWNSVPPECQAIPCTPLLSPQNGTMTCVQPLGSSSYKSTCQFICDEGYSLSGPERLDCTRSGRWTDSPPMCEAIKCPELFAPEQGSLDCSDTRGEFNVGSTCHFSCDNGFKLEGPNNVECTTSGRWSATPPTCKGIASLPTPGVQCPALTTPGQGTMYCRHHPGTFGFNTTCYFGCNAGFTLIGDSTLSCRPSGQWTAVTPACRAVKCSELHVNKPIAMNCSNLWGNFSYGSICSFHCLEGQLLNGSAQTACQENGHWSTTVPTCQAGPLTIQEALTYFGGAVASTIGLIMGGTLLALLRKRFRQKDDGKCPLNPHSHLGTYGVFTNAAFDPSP

[5] = administered systemically; cited from earlier work

Molecule | L-selectin-dependent adhesion [1] | E-selectin-dependent adhesion [2] | anti-inflammatory effects [3] | P-selectin-dependent adhesion [4] | tolerability in patients [5]
O=C(O)Cc1cccc(-c2cc(CCCCCCc3ccc(OC4O[C@H](CO)C(O)[C@H](O)[C@@H]4O)c(-c4cccc(CC(=O)O)c4)c3)ccc2OC2O[C@H](CO)C(O)[C@H](O)[C@@H]2O)c1 (stereo partly drawn) [Bimosiamose (TBC1269)] | inhibit | inhibit | anti-inflammatory effects | inhibit | 
inclacumab: monoclonal antibody directed towards P-selectin |  |  |  |  | well tolerated
B1 |  |  |  |  | well tolerated
